Where “and” joins values, the source holds several entries; their conditions need not be identical. Equal values may be shown once.
Assays:
OVCAR-3 OC cells = experiment: OVCAR-3 proliferation assay (cell count, Trypan Blue); format: cell-based; conditions: Homo sapiens, 48 h incubation, read-out: IC50 cell viability OVCAR-3
Method: The methodology for the evaluation of the growth of human MCF-7 breast carcinoma cells was previously described, except that cells were grown for 96 h for IC50 determinations.[66] U-87 MG and OVCAR-3 proliferation assays were performed plating 10^4 cells/cm^2 in a Multiwell 24. The day after, cells were treated with compound 15, and DMSO was used as a control. Cells were counted 48 h later with a Bürker counting chamber, after dilution in TrypanBlue (#T6146 Sigma-Aldrich).
All experiments were performed multiple times to reach statistical significance, as specified in the figure legends. Statistical analysis was performed using GraphPad Prism version 7.0 for Mac. IC50 values were calculated by using a nonlinear regression formula, using the percentage of cells number and the logarithmic value of drug concentrations. Data were analyzed with analysis of variance (one-way ANOVA test). Data with *p < 0.05 were considered statistically significant.

tubulin = experiment: Inhibition of tubulin polymerization (assembly assay); format: biochemical; conditions: tubulin at 10 μM, read-out: Tubulin IC50 ± SD
Method: The assembly reaction mixtures contained 0.8 M monosodium glutamate (pH 6.6 with HCl in a 2 M stock solution), 10 μM tubulin, 4% (v/v) DMSO, and varying concentrations of the drug. Following a 15 min preincubation at 30 °C, samples were chilled on ice, GTP to 0.4 mM was added, and turbidity development was followed at 350 nm in a temperature-controlled recording spectrophotometer for 20 min at 30 °C. The extent of reaction was measured. Full experimental details were previously described.[63] For the colchicine binding assay, reaction mixtures contained 1.0 μM tubulin, 5.0 μM [^3H]colchicine, and 5.0 or 1.0 μM inhibitor and were incubated for 10 min at 37 °C. Complete details were described previously.[64]

[1] = Metabolic stability in human liver microsomes; format: in vitro ADME
Method: (§1) Mouse (Sigma Aldrich, CD-1 male, pooled) and human microsomes (Sigma Aldrich, human, pooled) at 0.5 mg/mL were preincubated with the test compound 15 dissolved in DMSO at 1 μM in phosphate buffer 50 mM, pH 7.4, and 3 mM MgCl2 for 10 min at 37 °C. The reaction was then started by adding the cofactor mixture solution (NADP, glucose-6-phosphate, glucose-6-phosphate dehydrogenase in 2% NaHCO3). Samples were taken at 0, 10, 30, 45, and 60 min and added to acetonitrile to stop the reaction. Samples were then centrifuged, and the supernatant was analyzed by LC–MS/MS to quantify the amount of the compound. A control sample without the cofactor was always added to check the chemical stability of the test compound. […] A fixed concentration of verapamil was added in every sample as an internal standard for LC–MS/MS analyses. The percentage of the area of the test compound remaining at the various incubation times was calculated with respect to the area of the compound at time 0 min.
(§2) The rate constant, k (min^–1), derived for the exponential decay equation (peak area/IS vs time), was used to calculate the rate of Cli.
(§3) Samples were analyzed under the following conditions: UPLC Waters coupled with an API 3200 triple-quadrupole (ABSciex); eluents, (phase A) 95% water, 5% acetonitrile + 0.1% HCOOH, (phase B) 5% water, 95% acetonitrile + 0.1% HCOOH; flow rate, 0.3 mL/min; column, Gemini-Nx 5 μm C18 110A (50 × 2.00 mm) at 35 °C; injection volume, 10 μL. Source conditions ESI positive: T 400 °C, Gas 1 30, Gas 2 35, CUR 30, IS 5500, CAD 5.

[2] = Metabolic stability in mouse liver microsomes; format: in vitro ADME
Method: as §1, §2, §3

[3] = test system: PARP cleavage in U-87 MG cells; experiment: PARP cleavage by western blot in U-87 MG cells; format: cell-based, human; conditions: immunoblotting
Method: Western blotting was performed as previously described[68] by lysing cells in denaturing buffer sodium dodecyl sulfate (SDS)–urea. Extracts were sonicated, their protein quantified, and aliquots were loaded into an SDS–polyacrylamide gel. After electrophoresis, the proteins in the gel were transferred onto a nitrocellulose membrane (cat. no. NBA085C001EA, PerkinElmer), which then was blocked with 5% milk in TBS-T (Tris HCl with 0.1% Tween 20) and incubated with primary antibodies overnight: PARP antibody diluted 1:1000 (cat. no. 9542S CST) and actin antibody diluted 1:10,000 (cat. no. A5441, Sigma Aldrich). The next day, the membrane was extensively washed with TBS-T and incubated with horse radish peroxidase (HRP)-conjugated secondary antibodies diluted in the 5% milk solution. Detection of the HRP signal was performed using ECL (cat. no. K-12045-D50, Advansta).

COc1cc(C(=O)c2cn(-c3ncccn3)cc2-c2ccco2)cc(OC)c1OC [Compound 15, (4-(Furan-2-yl)-1-(pyrimidyl-2-yl)-1H-pyrrol-3-yl)(3,4,5-trimethoxyphenyl)methanone]
IC50 (OVCAR-3 OC cells): 2.85 nM
IC50 (tubulin): 520 ± 70 nM
Cli ± SD ([1]; HLM 0.5 mg/mL, 1 μM, n = 2): 36 μL/min/mg protein and 35.9 ± 0.2 μL/min/mg protein
half-life at 1 h, 1 µM ([1]; human, liver microsomes, pH 7.4, HLM 0.5 mg/mL, 1 μM, n = 2, read-out: t1/2 ± SD): 38.7 ± 0.2 min
microsomal CLint at 1 μM ([1]; pH 7.4, human liver microsomes, read-out: intrinsic clearance classification): 1.8 to 48 µL/min/mg
Cli ± SD ([2]; MLM 0.5 mg/mL, 1 μM, n = 2): 461 μL/min/mg protein and 461.1 ± 45.5 μL/min/mg protein
half-life at 1 h, 1 µM ([2]; male, CD-1, mouse, liver microsomes, pH 7.4, MLM 0.5 mg/mL, 1 μM, n = 2, read-out: t1/2 ± SD): 3 ± 0.3 min
microsomal CLint at 1 μM ([2]; male, CD-1, pH 7.4, mouse liver microsomes, read-out: intrinsic clearance classification): > 66 µL/min/mg
concentration from which PARP cleavage occurs [3]: ≥ 20 nM

Source: publication PMC9743090, “Induction of Ferroptosis in Glioblastoma and Ovarian Cancers by a New Pyrrole Tubulin Assembly Inhibitor” (Journal of Medicinal Chemistry, 2022)
